Experimental data published in patent US5789434A, “Derivatives of substituted 4-biarylbutyric acid as matrix metalloprotease inhibitors” (priority 1995, dated 1998).

Columns and labels:
Type in all cases: biochemical
MMP-2 = target: T1, MMP-2 (Homo sapiens, UniProt P08253); assay: Automated MMP Profiling Assay, MMP-2 fluorogenic; details: 96-well automated, P218; read-out: MMP-2 Fluorogenic IC50 (profiling)
T1 sequence (P08253 110-660): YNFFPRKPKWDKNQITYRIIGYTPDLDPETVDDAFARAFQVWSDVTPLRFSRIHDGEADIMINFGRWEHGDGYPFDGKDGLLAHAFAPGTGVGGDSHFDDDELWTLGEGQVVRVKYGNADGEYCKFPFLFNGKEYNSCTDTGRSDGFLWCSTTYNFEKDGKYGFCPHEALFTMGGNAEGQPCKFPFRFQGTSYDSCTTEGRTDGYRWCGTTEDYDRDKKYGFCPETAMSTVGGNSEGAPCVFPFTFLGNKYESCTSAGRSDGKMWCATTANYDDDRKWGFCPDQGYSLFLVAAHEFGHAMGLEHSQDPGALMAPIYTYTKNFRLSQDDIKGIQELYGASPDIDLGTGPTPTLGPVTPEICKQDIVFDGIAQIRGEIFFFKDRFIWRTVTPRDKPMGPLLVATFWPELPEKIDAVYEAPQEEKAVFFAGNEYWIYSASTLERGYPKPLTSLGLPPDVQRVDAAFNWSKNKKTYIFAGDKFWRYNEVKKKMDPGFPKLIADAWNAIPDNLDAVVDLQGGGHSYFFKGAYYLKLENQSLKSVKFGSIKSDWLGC

MMP-3 = target: T2, MMP-3 (Homo sapiens, UniProt P08254); assay: Automated MMP Profiling Assay, MMP-3 fluorogenic; details: for IC50: 96-well automated, P218
T2 construct: Truncated Prostromelysin-257 was expressed in a soluble form in E.coli; made in house; host or cells: E. coli
T2 sequence (P08254 100-274 limits assumed): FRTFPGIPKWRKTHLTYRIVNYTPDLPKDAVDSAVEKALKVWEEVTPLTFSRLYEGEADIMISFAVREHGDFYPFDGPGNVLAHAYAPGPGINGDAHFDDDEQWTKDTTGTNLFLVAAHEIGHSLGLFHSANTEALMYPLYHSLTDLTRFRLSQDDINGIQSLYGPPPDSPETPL
From the text: This assay with each invention compound was run with the three enzymes MMP-3, MMP-9 and MMP-2 in parallel as adapted for a 96-well microtitre plate using a Hamilton A® workstation.

MMP-9 = target: T3, MMP-9 (Homo sapiens, UniProt P14780); assay: Automated MMP Profiling Assay, MMP-9 fluorogenic; details: for IC50: 96-well automated, P218
T3 construct: from tissue; host or cells: human polymorphonuclear leukocytes (PMN) from whole blood (New York Blood Center), PMA-stimulated supernatant
T3 sequence (P14780 107-707 limits assumed): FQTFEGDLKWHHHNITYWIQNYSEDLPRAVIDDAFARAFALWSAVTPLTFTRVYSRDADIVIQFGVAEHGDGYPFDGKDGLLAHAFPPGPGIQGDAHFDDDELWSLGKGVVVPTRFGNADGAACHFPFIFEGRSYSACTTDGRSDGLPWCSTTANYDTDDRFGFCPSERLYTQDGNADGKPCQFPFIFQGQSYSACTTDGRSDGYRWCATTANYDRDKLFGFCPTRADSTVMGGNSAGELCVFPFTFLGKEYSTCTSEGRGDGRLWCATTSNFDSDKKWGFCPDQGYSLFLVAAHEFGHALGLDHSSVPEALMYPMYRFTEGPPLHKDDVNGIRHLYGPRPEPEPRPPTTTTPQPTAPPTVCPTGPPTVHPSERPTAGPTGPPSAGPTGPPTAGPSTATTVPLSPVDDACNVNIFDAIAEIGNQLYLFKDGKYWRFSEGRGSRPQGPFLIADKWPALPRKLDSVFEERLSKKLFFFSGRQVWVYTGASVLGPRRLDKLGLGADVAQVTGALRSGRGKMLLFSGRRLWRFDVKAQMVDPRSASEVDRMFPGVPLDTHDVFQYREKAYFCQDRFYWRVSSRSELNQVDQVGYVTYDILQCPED
Protocol: Briefly, polymorphonuclear leukocytes (PMN) preparations were isolated as described above from 3 or more units of freshly drawn whole blood obtained from the New York Blood Center (New York, N.Y.). Cells were resuspended in phosphate buffered saline (PBS) containing 100 ng/ml phorbol myristate acetate (PMA) in the presence of 50 mM diisopropylfluorophospate (DFP), 1 μg/ml leupeptin and aprotinin, and 1 mg/ml catalase for 1 hr at 37° C. Supernatants were collected by centrifugation (300×g) and the samples were frozen at -70° C. All chromatographic methods were performed at 4° C. Thawed samples were concentrated 5-fold using an Amicon chamber equipped with a YM-10 membrane. The concentrate was pressure dialyzed against 0.02M Tris-HCl, 0.1M NaCl, 1 mM CaCl2, 1 μM ZnCl2, 0.001% Brij-35, 0.02% sodium azide (NaN3), pH 7.5 and applied to DEAE ion exchange chromatography resin which was previously equilibrated with the same buffer at a flow rate of 0.4 ml/min. The column was extensively washed with the same buffer and gelatinase was eluted as 4 ml fractions from the column with 0.02M Tris-HCl, 0.5M NaCl, 1 mM CaCl2, 1 μM ZnCl2, 0.001% Brij-35, 0.02% NaN3, pH 7.5. Gelatinase containing fractions were observed by gelatin zymography (see below), loaded onto a gelatin agarose affinity resin and washed with the same buffer. Gelatinase activity was eluted at a flow rate of 1 ml/min from the column as 1 ml fractions with 0.02M Tris-HCl, 1M NaCl, 1 mM CaCl2, 1 μM ZnCl2, 0.001% Brij-35, 0.02% NaN3, pH 7.5 containing 10% dimethyl sulfoxide (DMSO). The fractions containing gelatinase activity were pooled and dialyzed against 0.005M Tris-HCl, 5 mM NaCl, 0.5 mM CaCl2, 0.1 μM ZnCl2, 0.001% Brij-35, pH 7.4. The protein content associated with material was determined with a micro-BCA assay (Pierce, Rockford, Ill.), lyophilized and reconstituted to a desired working concentration (100 μg/ml).
This assay was run with a protocol analogous to that reported for MMP-3 inhibition using the synthetic peptide P218 and each of the three enzymes and measuring quenched fluorescence. This assay with each invention compound was run with the three enzymes MMP-3, MMP-9 and MMP-2 in parallel as adapted for a 96-well microtitre plate using a Hamilton A® workstation.

| Structure (SMILES) | IC50 (MMP-2) | IC50 (MMP-3) | IC50 (MMP-9) | inhibition at 5 µM (MMP-9) | inhibition at 5 µM (MMP-3) |
| --- | --- | --- | --- | --- | --- |
| O=C(CC(CCc1ccccc1C(=O)O)C(=O)O)c1ccc(-c2ccc(Cl)cc2)cc1 (stereo not drawn) [Example 143, [1,1'-Biphenyl]-4-butanoic acid, α-[2-(2-carboxyphenyl)ethyl]-4'-chloro-γ-oxo-] | 111 nM | 309 nM | 1400 nM |  |  |
| O=C(CC(CCN1C(=O)c2cccc(OCc3ccccc3)c2C1=O)C(=O)O)c1ccc(-c2ccc(Cl)cc2)cc1 (stereo not drawn) [Example 407, 2H-Isoindole-2-butanoic acid, α-[2-(4'-chloro[1,1'-biphenyl]-4-yl)-2-oxoethyl]-1,3-dihydro-1,3-dioxo-4-(phenylmethoxy)-] | 39 nM | 69 nM | 36 nM |  |  |
| CCOc1ccc(-c2ccc(C(=O)CC(CCN3C(=O)c4cc5ccccc5cc4C3=O)C(=O)O)cc2)cc1 (stereo not drawn) [Example 429, 2H-Benz[.function.]isoindole-2-butanoic acid, α-[2-(4'-ethoxy[1,1'-biphenyl]-4-yl)-2-oxoethyl]-1,3-dihydro-1,3-dioxo-] | 23 nM | 23 nM | 1.6 nM |  |  |
| CCCCCOc1ccc(-c2ccc(C(=O)CC(CCc3cccc(C(=O)N(CC)CC)c3)C(=O)O)cc2)cc1 (stereo not drawn) [Example 164, [1,1'-Biphenyl]-4-butanoic acid, α-[2-[3-[(diethylamino)carbonyl]phenyl]ethyl]-γ-oxo-4'-(pentyloxy)-] | 3.9 nM | 30 nM | 82 nM |  |  |
| Cc1ccc(COc2ccc(-c3ccc(C(=O)CC(CCCc4ccccc4)C(=O)O)cc3)cc2)cc1 (stereo not drawn) [Example 103, [1,1'-Biphenyl]-4-butanoic acid, 4'-[(4-methylphenyl)methoxy]-γ-oxo-α-(3-phenylpropyl)-] | 30 nM | 57 nM |  | 28% |  |
| CCN(CC)C(=O)c1cccc(SCC(CC(=O)c2ccc(-c3ccc(Cl)cc3)cc2)C(=O)O)c1 (stereo not drawn) [Example 435, [1,1'-Biphenyl]-4-butanoic acid, 4'-chloro-α-[[[3-[(diethylamino)carbonyl]phenyl]thio]methyl]-γ-oxo-] | 8.1 nM | 39 nM | 107 nM |  |  |
| O=C(O)[C@@H]1[C@@H](C(=O)c2ccc(-c3ccc(Cl)cc3)cc2)[C@H]2C=C[C@@H]1C2 (relative stereo) [Example 177, Bicyclo[2.2.1]hept-5-ene-2-carboxylic acid, 3-[(4'-chloro[1,1'-biphenyl]-4-yl)carbonyl]-, (2-endo-,3-endo)-] | 4330 nM |  |  | 30% | 11% |
| Cc1ccc(C(=O)OC[C@@H]2CC[C@H](C(=O)c3ccc(-c4ccc(Cl)cc4)cc3)[C@H]2C(=O)O)cc1 (relative stereo) [Example 380, Benzoic acid, 4-methyl-, [2-carboxy-3-[(4'-chloro[1,1'-biphenyl]-4-yl)carbonyl]cyclopentyl]methyl ester, (1α,2β,3α)-] | 69 nM | 46 nM | 40 nM |  |  |
| COC(=O)c1ccccc1S[C@@H]1CC[C@@H](C(=O)c2ccc(-c3ccc(Cl)cc3)cc2)[C@@H]1C(=O)O [Example 300, (1R,2R,5R)-trans-5-[4-(4-chlorophenyl)phenylcarbonyl]-cis-2-(2-methoxycarbonylphenylthio)cyclopentanecarboxylic acid] | 2500 nM | > 1250 nM | > 1250 nM |  |  |
| COC/C=C\c1ccc(-c2ccc(C(=O)CC(CCCc3ccccc3)C(=O)O)cc2)cc1 (stereo not drawn) [Example 354, [1,1'-Biphenyl]-4-butanoic acid, 4'-(3-methoxy-1-propenyl)-γ-oxo-α-(3-phenylpropyl)-, (Z)-] | 76 nM | 577 nM | 1710 nM |  |  |
| O=C(CC(CCN1C(=O)c2cc3ccccc3cc2C1=O)C(=O)O)c1ccc(-c2ccc(Cl)cc2)cc1 (stereo not drawn) [Example 409, 2H-Benz[.function.]isoindole-2-butanoic acid, α-[2-(4'-chloro[1,1'-biphenyl]-4-yl)-2-oxoethyl]-1,3-dihydro-1,3-dioxo-] | 30 nM | 12.3 nM | 1.9 nM |  |  |
| Cc1cccc(C)c1SCC(CC(=O)c1ccc(-c2ccc(Cl)cc2)cc1)C(=O)O (stereo not drawn) [Example 433, [1,1'-Biphenyl]-4-butanoic acid, 4'-chloro-α-[[(2,6-dimethylphenyl)thio]methyl]-γ-oxo-] | 6.2 nM | 103 nM | 130 nM |  |  |
| CCOc1ccc(-c2ccc(C(=O)CC(CCc3ccccc3)C(=O)O)cc2)cc1 (stereo not drawn) [Example 156, [1,1'-Biphenyl]-4-butanoic acid, 4'-ethoxy-γ-oxo-α-(2-phenylethyl)-] | 21 nM | 126 nM | 145 nM |  |  |
| CC(=O)O[C@H]1C[C@@H](C(=O)c2ccc(-c3ccc(Cl)cc3)cc2)[C@H]1C(=O)O (relative stereo) [Example 393, Cyclobutanecarboxylic acid, 2-(acetyloxy)-4-[(4'-chloro[1,1'-biphenyl]-4-yl)carbonyl]-, (1α,2α,4α)-] | 2000 nM |  |  | 38% | 18% |
| O=C(OC[C@@H]1CC[C@H](C(=O)c2ccc(-c3ccc(Cl)cc3)cc2)[C@H]1C(=O)O)c1ccccc1 (relative stereo) [Example 367] | 37 nM | 44 nM | 38 nM |  |  |
| O=C(O)[C@H]1[C@H](COCc2ccccc2)CC[C@@H]1C(=O)c1ccc(-c2ccc(Cl)cc2)cc1 (relative stereo) [Example 365, Cyclopentanecarboxylic acid, 2-[(4'-chloro[1,1'-biphenyl]-4-yl)carbonyl]-5-[(phenylmethoxy)methyl]-, (1α,2β,5β)-] | 13 nM | 27 nM | 58 nM |  |  |
| O=C(CC(CCN1C(=O)c2cc3c(cc2C1=O)OCO3)C(=O)O)c1ccc(-c2ccc(Cl)cc2)cc1 (stereo not drawn) [Example 419, 6H-1,3-Dioxolo[4,5-.function.]isoindole-6-butanoic acid, α-[2-(4'-chloro[1,1'-biphenyl]-4-yl)-2-oxoethyl]-5,7-dihydro-5,7-dioxo-] | 31 nM | 6.7 nM | 0.85 nM |  |  |
| O=C(CC(CCc1ccc(I)cc1)C(=O)O)c1ccc(-c2ccc(Cl)cc2)cc1 (stereo not drawn) [Example 128, [1,1'-Biphenyl]-4-butanoic acid, 4'-chloro-α-[2-(4-iodophenyl)ethyl]-γ-oxo-] | 145 nM | 561 nM | 715 nM |  |  |
| CCCOc1ccc2c(c1)C(=O)N(CCC(CC(=O)c1ccc(-c3ccc(Cl)cc3)cc1)C(=O)O)C2=O (stereo not drawn) [Example 406, 2H-Isoindole-2-butanoic acid, α-[2-(4'-chloro[1,1'-biphenyl]-4-yl)-2-oxoethyl]-1,3-dihydro-1,3-dioxo-5-propoxy-] | 17 nM | 10.3 nM | 1.7 nM |  |  |
| COc1ccc2c(c1)C(=O)N(CCC(CC(=O)c1ccc(-c3ccc(Cl)cc3)cc1)C(=O)O)C2=O (stereo not drawn) [Example 422, 2H-Isoindole-2-butanoic acid, α-[2-(4'chloro[1,1'-biphenyl]-4-yl)-2-oxoethyl]-1,3-dihydro-5-methoxy-1,3-dioxo-] | 14 nM | 8.4 nM | 1.6 nM |  |  |
| O=C(C[C@H](CS(=O)(=O)c1ccccc1)C(=O)O)c1ccc(-c2ccc(Cl)cc2)cc1 [Example 314, [1,1'-Biphenyl]-4-butanoic acid, 4'-chloro-γ-oxo-α-[(phenylsulfonyl)methyl]-, (S)-] | 13 nM | 399 nM | 555 nM |  |  |
